Seven molecules from PMC10788915, “Fragment Merging, Growing, and Linking Identify New Trypanothione Reductase Inhibitors for Leishmaniasis” (Journal of Medicinal Chemistry, 2024) can be followed below.

The EC50 is the concentration at which the effect is half-maximal. One may read the CC50 as the concentration at which the toxic effect on the cells reaches its halfway point. What is called IC50 is the concentration at which inhibition is half-maximal. Low values mean higher potency, high ones lower potency.

Like-named read-outs stand apart in the source and are kept apart here.

The subject of data set [1] is L. infantum axenic amastigotes. Nature of the data set: In vitro inhibition of axenic amastigote growth (MTT). Type of data set: cell-based, Leishmania infantum. The conditions noted are these: 72 h, read-out: axenic amastigote EC50 ± SE (95% CI). How it is done: Axenic amastigote growth inhibition was evaluated using L. infantum strain (MHOM/TN/80/IPT1, WHO international reference strain). Axenic amastigote cultures were obtained as described previously with modifications.[45] Promastigotes were grown in Schneider’s Drosophila medium (SIGMA) containing 10% heat-inactivated fetal calf serum (FCS)(GIBCO-BRL) and 2% gentamicin (50 mg/L)(Sigma) in 25 cm^2 flasks at 22 °C. After 4–5 days, the parasites were adjusted to 1 × 10^6 parasites/mL in axenic medium MAA/20 consisting of modified medium 199 (Gibco BRL) with Hanks’ salts supplemented with 0.5% tryptic soy broth (Sigma), 0.01 mM bathocuproine disulfonic acid, 3 mM L-cysteine, 15 mM D-glucose, 5 mM L-glutamine, 4 mM NaHCO3, 0.023 mM bovine hemin, and 25 mM HEPES to a final pH of 6.5 and supplemented with 20% pretested FCS, and axenic amastigotes were obtained by shifting the incubation conditions: 198 μL of suspension was seeded in triplicate in 96-well flat bottom microplates and incubated at 37 °C, 5% CO2 for 48 h in order to allow the axenization. The amastigote cells were visualized under the light microscope to confirm transformation. Then, 2 μL of the selected compounds with varying concentrations were added: 100, 50, 25, 12.5, 6.25, 3.12, 1.56, 0.8, 0.4, 0.2, 0.1, 0.05 μM. […] Each experiment was conducted in triplicate for each drug concentration, and three independent experiments were performed. To estimate the 50% inhibitory concentration (IC50), the (3-[4.5-dimethylthiazol-2-yl]-2.5-diphenyltetrazolium bromide) (MTT) micromethod was used throughout the experiments with modification. After 72 h of incubation, 30 μL of MTT was added to each well, and the plates were further incubated for 3 h. The absorbance at 550 nm was measured with a 96-well scanner. Antileishmanial activity was expressed as the percentage of inhibition in the number of live parasites compared to that in the control (nontreated parasites). % inhibition was calculated as follows: % growth inhibition = [(absorb cell with drug × 100)/absorb cell control] – 100. Results were analyzed by GraphPad Prism 5.0, dose–response curves were obtained and IC50 deduced (GraphPad Software Inc., San Diego, USA).

Data set [2] relates to primary murine macrophages. The data set is described as follows: Cytotoxicity assay on primary murine macrophages (MTT). Type of data set: cell-based, Balb/c mice. The conditions noted are these: Balb/c peritoneal macrophages, 72 h, read-out: primary murine macrophage CC50 ± SE (95% CI). How it is done: (§1) To assess the cytotoxicity of compounds on mammalian macrophages, we tested all the compounds against both human leukemia monocyte cell line (THP-1 cells, ATCC) differentiated into macrophages by treatment with 40 ng/mL of phorbol myristate acetate (PMA; Sigma) for 48 h and peritoneal exudate macrophages harvested from Balb/c mice. […] Cell viability was evaluated using the MTT assay, and the concentration of the compound that produced a 50% reduction of cell viability in treated culture cells with respect to untreated ones (CC50) was determined by GraphPad Prism 5.0 (GraphPad Software Inc., San Diego, USA). […] The selectivity index for each compound was calculated as the ratio of cytotoxicity (CC50) in macrophages cells to activity (IC50) against Leishmania axenic amastigotes. The experiments were performed in triplicate, and two independent experiments were conducted.

Data set [3] addresses T1, Leishmania infantum TR (LiTR) (Leishmania infantum, UniProt A4HSF7).
T1 construct: The TbTR and LiTR genes were subcloned in a pET28b vector; 6-His (cleaved yes); made in house; host or cells: E. coli BL21(DE3), pET28b
The data set is described as follows: LiTR enzymatic inhibition assay (NADPH oxidation at 340 nm). The class given is biochemical. The conditions noted are these: for LiTR residual activity % / remaining activity at 10 µM: compound at 10 μM. As for the experimental part: (§2) Enzymatic inhibition assays were performed in 50 mM HEPES pH 7.4, 40 mM NaCl at 25 °C using a JASCO V650 spectrophotometer equipped with a JASCO EHC 716 Peltier element to ensure controlled temperature. The first experiment was carried out using 50 nM LiTR, 10 or 100 μM compound to be tested, 150 μM trypanothione (trypanothione disulfide purchased from Bachem), and 100 μM NADPH (tetrasodium salt, purchased from Calbiochem). The best inhibitor candidates were then tested at concentrations ranging from 1 nM to 250 μM to determine the IC50. Assays were initiated upon addition of 100 μM NADPH to 50 nM LiTR or hGR (human glutathione reductase purchased from Sigma-Aldrich) in the presence of different concentration of compounds and 150 μM trypanothione. For both experiments, the oxidation of NADPH was followed as a decrease in absorbance at 340 nm. For each concentration of compound, the initial velocity of the NADPH oxidation was used to determine the percentage of LiTR activity with respect to that in the absence of any compound. The IC50 was determined upon fitting the residual activity of TR as a dose–response logistic equation defined as ymin + (ymax – ymin)/(1 + (x/IC50)^slope). […] The Ki was determined graphically upon linear fitting of data points for each trypanothione concentration. Data analysis was performed with QtiPlot 0.9.8.9 svn 2288, and graphs were made with Matplotlib.
(§3) Figure S3. Inhibition assay of LiTR (red) and hGR (grey) with compounds 5-6, 9-10 and 14.
(§4) Enzymatic assays were carried out at 25°C on a JASCO V650 spectrophotometer equipped with a JASCO EHC716 Peltier unit. Compound concentrations used during the experiments range from 1 […]
(§5) higher than 30 µM and 20 µM, respectively. Briefly, 50 nM LiTR or hGR (Sigma Aldrich) were mixed in 50 mM HEPES pH 7.4, 40 mM NaCl with each compound and 150 µM trypanothione or glutathione. After 3-minute incubation at 25°C, the measurement was initiated upon addition of 100 µM NADPH. The oxidation of NADPH was followed as a decrease in absorbance at 340 nm. Each initial velocity of LiTR enzymatic reaction with the compounds was expressed as a percentage of residual activity with respect to that in the absence of compound. Each data point is the mean of two measurements. The IC50 was determined upon fitting the data as a dose response logistic equation defined by the Kaleidagraph software as ymin+(ymax-ymin)/(1+(x/IC50)^slope).
(§6) (1 picture or pasted object on this page, not shown here)

For data set [4], the system named is human THP-1-derived macrophages. Nature of the data set: Cytotoxicity assay on human THP-1-derived macrophages (MTT). Type of data set: cell-based. The note with it: for CC50: 72 h, MTT, read-out: human THP-1-derived macrophage CC50 ± SE (95% CI). As for the experimental part:
as §1

A short description of data set [5]: Cytotoxicity assay on primary murine macrophages (MTT). The class given is cell-based, Balb/c mice. The note with it: Balb/c, mouse, primary peritoneal exudate macrophages, read-out: primary murine macrophage CC50 ± SE (95% CI). How it is done:
as §1

Data set [6] in a line: Cytotoxicity assay on human THP-1-derived macrophages (MTT). Type of data set: cell-based. The note with it: human, THP-1 cells differentiated into macrophages with PMA, 72 h, MTT; read-out: human THP-1-derived macrophage CC50 ± SE (95% CI). As for the experimental part:
as §1

Data set [7] is described as follows: Solubility observed in the enzymatic assay. Type of data set: physicochemical. The note with it: no reliable data at concentrations higher than 30 µM (5) and 20 µM (6). How it is done:
as §3, §4, §5, §6

Data set [8] concerns the target T2, hGR (human glutathione reductase) (Homo sapiens, UniProt P00390).
T2 construct: purchased Sigma-Aldrich
T2 sequence (P00390 44-522): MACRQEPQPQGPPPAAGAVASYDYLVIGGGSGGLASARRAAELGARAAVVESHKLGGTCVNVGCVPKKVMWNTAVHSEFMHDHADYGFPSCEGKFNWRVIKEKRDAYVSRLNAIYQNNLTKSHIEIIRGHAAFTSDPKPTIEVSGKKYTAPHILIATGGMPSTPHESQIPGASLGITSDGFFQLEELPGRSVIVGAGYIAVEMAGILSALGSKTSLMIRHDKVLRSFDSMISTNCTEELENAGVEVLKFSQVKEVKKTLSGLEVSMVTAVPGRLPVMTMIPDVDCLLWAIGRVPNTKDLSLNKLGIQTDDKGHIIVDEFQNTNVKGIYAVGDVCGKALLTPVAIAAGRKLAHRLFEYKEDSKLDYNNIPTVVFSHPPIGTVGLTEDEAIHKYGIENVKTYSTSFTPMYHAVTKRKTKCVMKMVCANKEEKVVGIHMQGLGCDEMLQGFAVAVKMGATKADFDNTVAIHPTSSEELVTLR
Nature of the data set: hGR enzymatic inhibition assay (NADPH oxidation at 340 nm). The conditions noted are these: 50 nM hGR, 100 μM NADPH, 25 °C. Type of data set: biochemical. As for the experimental part: as §2, §3, §4, §5, §6

Setting [9] is: mean ± SD, n = 3, read-out: LiTR residual activity %.

T1 sequence (A4HSF7 1-491): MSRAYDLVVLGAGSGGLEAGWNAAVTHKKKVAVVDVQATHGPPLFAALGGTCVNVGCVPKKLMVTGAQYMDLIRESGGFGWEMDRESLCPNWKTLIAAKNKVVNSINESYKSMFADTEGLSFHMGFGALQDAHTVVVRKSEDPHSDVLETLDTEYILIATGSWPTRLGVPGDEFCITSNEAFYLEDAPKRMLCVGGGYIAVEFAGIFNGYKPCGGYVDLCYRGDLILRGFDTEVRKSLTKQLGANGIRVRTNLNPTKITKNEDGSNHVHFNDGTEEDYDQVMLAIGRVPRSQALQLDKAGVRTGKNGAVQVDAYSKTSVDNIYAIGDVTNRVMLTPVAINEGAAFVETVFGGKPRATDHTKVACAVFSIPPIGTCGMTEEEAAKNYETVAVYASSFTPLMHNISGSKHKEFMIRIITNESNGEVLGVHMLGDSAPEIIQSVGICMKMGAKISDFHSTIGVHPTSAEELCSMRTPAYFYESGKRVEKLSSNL

As for “4-(3,4-Dichlorobenzyl)-N-(4-fluorophenyl)-N-((5-(phenethylcarbamoyl)furan-2-yl)methyl)piperazine-1-carboxamide [Compound 8]”, the EC50 in data set [1] stood at 10.3 ± 0.9 µM. Further, the CC50 amounted to 14.4 ± 1.6 µM in data set [2] and 11.7 ± 1.6 µM in data set [4]. Moreover, the “LiTR residual activity %” value in data set [3] (mean ± SD, n = 3) is on record as 94.1 ± 4.9 @10 μM %. Moreover, the “SI = human THP-1-derived macrophage CC50/axenic amastigote EC50” value in data set [4] was determined as 1.1.
As for “N-((5-((4-Fluorophenethyl)carbamoyl)furan-2-yl)methyl)-N-(4-fluorophenyl)-4-(3-(2-(trifluoromethyl)-10H-phenothiazin-10-yl)propyl)piperazine-1-carboxamide [Compound 7]”, in data set [1], the EC50 was 13 ± 1.5 µM. For the same molecule, in data set [3] (mean ± SD, n = 3), the “LiTR residual activity %” value is given as 70.8 ± 5.9 @10 μM %. For the same molecule, in data set [4], the “SI = human THP-1-derived macrophage CC50/axenic amastigote EC50” value amounted to 1.8 and the CC50 was 23.4 ± 4.6 µM.
Turning to `O=C(Nc1ccc(F)cc1)N1CCN(CCCc2ccccc2)CC1` [Compound 4, N-(4-Fluorophenyl)-4-(3-phenylpropyl)piperazine-1-carboxamide], the EC50 in data set [1] (Leishmania infantum) worked out at 11.5 ± 2.1 µM. Moreover, the CC50 at 72 h worked out at 12.9 ± 0.9 µM in data set [5] and 9.6 ± 0.71 µM in data set [6]. Moreover, the remaining activity at 100 µM in data set [3] (compound at 100 μM, mean ± SD, n = 3, read-out: LiTR residual activity %) was 96.7 ± 6.1%. Moreover, in data set [4], the “SI = human THP-1-derived macrophage CC50/axenic amastigote EC50” value is recorded as 0.8.
In the case of `O=C(O)c1ccc(N(Cc2ccc(C(=O)NCCc3ccc(F)cc3)o2)C(=O)N2CCN(CCCc3ccccc3)CC2)cc1` [Compound 11, 4-(N-((5-((4-Fluorophenethyl)carbamoyl)furan-2-yl)methyl)-4-(3-phenylpropyl)piperazine-1-carboxamido)benzoic Acid], the EC50 in data set [1] (Leishmania infantum) worked out at 25.6 ± 7.4 µM. Further, the CC50 at 72 h in data set [5] and in data set [6] was greater than 50 µM in each case. Further, the remaining activity at 10 µM in data set [3] (setting [9]) came out at 74.5 ± 9.3%. In data set [4], the “SI = human THP-1-derived macrophage CC50/axenic amastigote EC50” value was greater than 2.
For `O=C(NCCc1ccc(F)cc1)c1ccc(CNC(=O)N2CCN(CCCc3ccccc3)CC2)o1` [Compound 12, N-((5-((4-Fluorophenethyl)carbamoyl)furan-2-yl)methyl)-4-(3-phenylpropyl)piperazine-1-carboxamide], the EC50 in data set [1] (Leishmania infantum) is 14.1 ± 1.3 µM. The figures for the CC50 at 72 h in data set [5] and in data set [6] were 26.7 ± 4.5 µM and 37.6 ± 13.8 µM, respectively. Also, the remaining activity at 10 µM in data set [3] (setting [9]) is 74.6 ± 9.3%. In addition, the “SI = human THP-1-derived macrophage CC50/axenic amastigote EC50” value in data set [4] was determined as 2.7.
For `O=C(NCCc1ccc(F)cc1)c1ccc(CNC(=O)N2CCN(Cc3ccc(Cl)c(Cl)c3)CC2)o1` [Compound 13, 4-(3,4-Dichlorobenzyl)-N-((5-((4-fluorophenethyl)carbamoyl)furan-2-yl)methyl)piperazine-1-carboxamide] the same measures were 11.2 ± 0.7 µM, 12.6 ± 0.9 µM, 21 ± 3.1 µM, 89.2 ± 4.9% and 1.9.
`O=C(NCCc1ccc(F)cc1)c1ccc(CN(C(=O)N2CCN(CCCN3c4ccccc4Sc4ccc(Cl)cc43)CC2)c2ccc(F)cc2)o1` [Compound 6, 4-(3-(2-Chloro-10H-phenothiazin-10-yl)propyl)-N-((5-((4-fluorophenethyl)carbamoyl)furan-2-yl)methyl)-N-(4-fluorophenyl)piperazine-1-carboxamide]: the “solubility in the enzymatic assay” value in data set [7] is on record as “low solubility”. Moreover, the EC50 amounted to 13 ± 1.5 µM in data set [1] and 12 ± 1.7 µM in data set [1] (Leishmania infantum). Further, the IC50 in data set [8] was 9.6 ± 1.4 µM; in data set [3] (50 nM LiTR, 150 μM trypanothione, 100 μM NADPH, 25 °C) it was 21.7 ± 4.4 µM. In addition, the “gain in LiTR IC50 with respect to 5” value in data set [3] (compared to compound 5 (IC50 54.6 μM)) is recorded as “more than 2 fold”. Moreover, the remaining activity at 10 µM in data set [3] (setting [9]) is 46.9 ± 18%.
